One series deals with T1, NaV1.5 (Homo sapiens, UniProt Q14524).
T1 construct: permanently transfected with an expression vector containing the full-length cDNA coding for the desired human sodium channel α-subunit; expressed in transfected cells; host or cells: HEK-293
Put plainly: Patch voltage clamp electrophysiology assay (EP), NaV1.5. It counts as cell-based. The essentials: (§1)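 Percent block is the drop in sodium current after compound wash-on, measured by a test pulse following 20 ms at −150 mV from a −60 mV inactivating holding potential.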

The target in a further series is T2, hNav1.7 (Homo sapiens, UniProt Q15858).
T2 construct: expressed in transfected cells
T2 sequence (Q15858 1-1977 isoform Q15858-3): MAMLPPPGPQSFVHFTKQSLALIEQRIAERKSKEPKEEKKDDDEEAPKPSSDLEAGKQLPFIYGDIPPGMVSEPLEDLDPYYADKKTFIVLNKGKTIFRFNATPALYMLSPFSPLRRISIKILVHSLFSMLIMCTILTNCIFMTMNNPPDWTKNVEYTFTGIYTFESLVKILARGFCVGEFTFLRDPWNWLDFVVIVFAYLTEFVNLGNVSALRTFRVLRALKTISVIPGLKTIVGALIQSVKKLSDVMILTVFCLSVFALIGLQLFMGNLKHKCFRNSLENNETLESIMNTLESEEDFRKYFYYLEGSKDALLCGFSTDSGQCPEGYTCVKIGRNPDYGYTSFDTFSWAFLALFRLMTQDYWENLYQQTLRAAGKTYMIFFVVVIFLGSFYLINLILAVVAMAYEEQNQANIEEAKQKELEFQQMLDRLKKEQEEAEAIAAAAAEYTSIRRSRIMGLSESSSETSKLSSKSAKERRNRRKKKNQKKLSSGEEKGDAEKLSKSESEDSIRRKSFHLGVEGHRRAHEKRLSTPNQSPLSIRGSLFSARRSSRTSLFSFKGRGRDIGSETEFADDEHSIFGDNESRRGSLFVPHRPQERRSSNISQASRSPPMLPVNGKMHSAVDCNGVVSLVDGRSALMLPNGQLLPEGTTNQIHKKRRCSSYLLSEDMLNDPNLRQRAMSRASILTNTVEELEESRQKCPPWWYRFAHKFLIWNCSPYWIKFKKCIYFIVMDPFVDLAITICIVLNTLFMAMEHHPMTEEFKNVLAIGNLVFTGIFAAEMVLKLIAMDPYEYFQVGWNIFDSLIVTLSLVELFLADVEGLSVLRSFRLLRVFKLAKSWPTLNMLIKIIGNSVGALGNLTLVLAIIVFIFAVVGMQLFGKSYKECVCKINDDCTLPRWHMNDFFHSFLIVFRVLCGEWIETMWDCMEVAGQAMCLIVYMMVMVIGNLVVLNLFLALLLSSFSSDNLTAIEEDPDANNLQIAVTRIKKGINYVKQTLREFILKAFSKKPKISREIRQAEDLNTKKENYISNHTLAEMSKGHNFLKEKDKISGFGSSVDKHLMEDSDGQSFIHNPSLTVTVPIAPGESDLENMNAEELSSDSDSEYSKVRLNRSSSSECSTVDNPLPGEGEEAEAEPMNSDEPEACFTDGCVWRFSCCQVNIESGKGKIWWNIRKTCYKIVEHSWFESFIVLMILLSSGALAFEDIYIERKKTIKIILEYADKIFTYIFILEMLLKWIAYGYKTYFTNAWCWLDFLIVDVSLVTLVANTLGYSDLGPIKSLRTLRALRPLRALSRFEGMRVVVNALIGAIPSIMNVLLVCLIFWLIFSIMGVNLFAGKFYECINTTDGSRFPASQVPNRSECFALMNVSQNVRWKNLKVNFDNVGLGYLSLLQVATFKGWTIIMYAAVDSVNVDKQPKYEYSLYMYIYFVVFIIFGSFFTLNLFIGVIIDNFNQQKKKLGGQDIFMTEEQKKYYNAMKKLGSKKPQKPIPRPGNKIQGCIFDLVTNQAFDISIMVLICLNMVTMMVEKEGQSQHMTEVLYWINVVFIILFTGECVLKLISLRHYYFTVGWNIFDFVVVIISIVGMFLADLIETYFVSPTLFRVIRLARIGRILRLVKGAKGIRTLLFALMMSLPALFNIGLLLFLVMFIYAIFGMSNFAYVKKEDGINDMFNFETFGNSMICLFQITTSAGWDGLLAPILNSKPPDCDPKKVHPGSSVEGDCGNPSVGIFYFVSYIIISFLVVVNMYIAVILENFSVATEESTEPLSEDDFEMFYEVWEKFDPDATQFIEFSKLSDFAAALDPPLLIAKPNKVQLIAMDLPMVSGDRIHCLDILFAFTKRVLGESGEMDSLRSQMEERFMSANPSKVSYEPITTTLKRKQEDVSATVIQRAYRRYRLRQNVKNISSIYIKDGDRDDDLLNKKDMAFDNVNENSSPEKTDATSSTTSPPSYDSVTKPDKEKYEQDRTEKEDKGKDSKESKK
T2 sequence (Q07699 19-218 partner): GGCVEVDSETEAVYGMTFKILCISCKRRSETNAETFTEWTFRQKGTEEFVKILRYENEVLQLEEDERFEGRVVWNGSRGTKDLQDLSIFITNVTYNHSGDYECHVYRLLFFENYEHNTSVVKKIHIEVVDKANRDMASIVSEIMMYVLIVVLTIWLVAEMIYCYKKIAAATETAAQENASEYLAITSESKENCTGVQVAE
Briefly: Tritiated compound binding (LBA) to membranes from cells expressing hNav1.7 and the β1 subunit, competitive binding. The settings on record: competitive binding vs 100 pM [3H]compound, 18 h, room temperature, membranes with hNav1.7 and β1 subunit. The essentials:
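Competitive displacement of 100 pM [3H]compound (tritiated methyl analogue of formula (I)) from hNav1.7/β1 membranes, 18 h at room temperature in NaCl/Tris pH 7.4 buffer containing 0.01% BSA. 1 μM unlabeled compound set non-specific binding. Bound label quantified by scintillation after filtration; 4-parameter fit gave IC50.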

The target of a further series is T3, human NaV1.7 (Homo sapiens, UniProt Q15858).
T3 construct: permanently transfected with an expression vector containing the full-length cDNA coding for the desired human sodium channel α-subunit; expressed in transfected cells; host or cells: HEK-293
T3 sequence (Q15858 1-1977 isoform Q15858-3): as the sequence (Q15858 1-1977 isoform Q15858-3) above
T3 sequence (Q07699 19-218 partner): as the sequence (Q07699 19-218 partner) above
Put plainly: Patch voltage clamp electrophysiology assay (EP), NaV1.7. It counts as cell-based. The settings on record: HEK-293 cells stably expressing NaV1.7 with β1 subunit; whole-cell patch clamp, membrane potential −60 mV (inactivated state). In a few lines: as §1
(In general: In patch-clamp work, channel activity is measured electrically.)

Where [1] appears, read: HEK-293 cells stably expressing NaV1.5 with β1 subunit, whole-cell patch clamp, membrane potential −60 mV (inactivated state), read-out: Nav1.5.
Setting [2] is: human, HEK-293 cells stably expressing human NaV1.5 with β1 subunit, pH 7.4, HEK-293 cells stably expressing NaV1.5 with β1 subunit, whole-cell patch clamp, membrane potential −60 mV (inactivated state).

Where a name gives a salt, the structure may show the parent alone. Read-outs that look alike come from different tables or passages of the source. Some results are limits rather than exact numbers.

T1 sequence (Q14524 whole entry): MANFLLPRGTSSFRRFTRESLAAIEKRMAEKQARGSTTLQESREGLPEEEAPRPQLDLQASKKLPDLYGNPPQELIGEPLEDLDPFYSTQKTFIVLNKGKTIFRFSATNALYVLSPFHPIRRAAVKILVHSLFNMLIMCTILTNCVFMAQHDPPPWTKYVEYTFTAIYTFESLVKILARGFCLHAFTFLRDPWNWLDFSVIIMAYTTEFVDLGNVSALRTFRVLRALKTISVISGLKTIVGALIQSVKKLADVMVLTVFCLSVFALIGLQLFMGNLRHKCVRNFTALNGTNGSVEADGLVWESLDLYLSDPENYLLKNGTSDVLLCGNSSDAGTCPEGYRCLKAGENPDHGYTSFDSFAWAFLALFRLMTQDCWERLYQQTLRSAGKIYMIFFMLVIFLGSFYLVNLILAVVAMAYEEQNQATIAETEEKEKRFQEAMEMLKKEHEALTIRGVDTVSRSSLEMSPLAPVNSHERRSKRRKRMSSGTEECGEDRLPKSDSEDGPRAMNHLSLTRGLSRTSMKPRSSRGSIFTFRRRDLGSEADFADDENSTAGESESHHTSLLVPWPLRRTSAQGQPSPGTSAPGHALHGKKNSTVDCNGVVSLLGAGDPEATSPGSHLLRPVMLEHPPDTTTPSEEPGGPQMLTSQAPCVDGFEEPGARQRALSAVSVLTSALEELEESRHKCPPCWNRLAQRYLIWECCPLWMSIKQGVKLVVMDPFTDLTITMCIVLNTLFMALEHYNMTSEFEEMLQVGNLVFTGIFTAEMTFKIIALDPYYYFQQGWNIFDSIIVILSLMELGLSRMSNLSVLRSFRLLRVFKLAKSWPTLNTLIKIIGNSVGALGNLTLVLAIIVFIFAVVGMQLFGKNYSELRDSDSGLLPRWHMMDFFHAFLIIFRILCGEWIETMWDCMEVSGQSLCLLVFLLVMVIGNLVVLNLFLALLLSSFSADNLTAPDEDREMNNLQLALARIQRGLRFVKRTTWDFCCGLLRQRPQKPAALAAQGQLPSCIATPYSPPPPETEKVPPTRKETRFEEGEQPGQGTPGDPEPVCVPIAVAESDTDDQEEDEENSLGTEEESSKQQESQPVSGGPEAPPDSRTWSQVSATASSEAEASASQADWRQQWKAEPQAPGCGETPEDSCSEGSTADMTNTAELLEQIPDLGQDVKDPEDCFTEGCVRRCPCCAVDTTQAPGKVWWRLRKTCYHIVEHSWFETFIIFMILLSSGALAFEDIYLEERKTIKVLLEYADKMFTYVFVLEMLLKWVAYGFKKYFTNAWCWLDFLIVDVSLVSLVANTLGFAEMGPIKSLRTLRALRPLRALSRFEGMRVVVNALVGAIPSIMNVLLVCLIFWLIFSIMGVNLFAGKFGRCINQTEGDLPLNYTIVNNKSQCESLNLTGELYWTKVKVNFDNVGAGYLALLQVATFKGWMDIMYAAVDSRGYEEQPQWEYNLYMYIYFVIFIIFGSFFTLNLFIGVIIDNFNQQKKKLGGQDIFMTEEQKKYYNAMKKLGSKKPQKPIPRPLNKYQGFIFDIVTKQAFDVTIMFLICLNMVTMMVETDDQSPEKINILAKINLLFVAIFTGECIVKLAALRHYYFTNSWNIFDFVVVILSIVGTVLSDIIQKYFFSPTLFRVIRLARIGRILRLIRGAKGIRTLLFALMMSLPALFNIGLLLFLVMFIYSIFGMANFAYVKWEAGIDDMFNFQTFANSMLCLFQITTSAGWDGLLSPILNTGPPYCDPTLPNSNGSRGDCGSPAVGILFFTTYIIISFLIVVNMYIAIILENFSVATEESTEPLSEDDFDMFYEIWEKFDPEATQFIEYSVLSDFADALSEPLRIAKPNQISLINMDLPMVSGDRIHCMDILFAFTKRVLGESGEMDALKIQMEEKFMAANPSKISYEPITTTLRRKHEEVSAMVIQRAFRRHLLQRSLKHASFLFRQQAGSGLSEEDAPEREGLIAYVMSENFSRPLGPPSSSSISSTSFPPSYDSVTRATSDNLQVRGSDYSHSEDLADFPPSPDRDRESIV

For the compound `CC1(C)[C@@H]2[C@@H](C(=O)O)N(C(=O)c3cc(C4CC4)c(OCC45CC6CC(CC(C6)C4)C5)cc3F)C[C@@H]21` [Example 202, (1R,2S,5S)-3-(4-(adamantan-1-ylmethoxy)-5-cyclopropyl-2-fluorobenzoyl)-6,6-dimethyl-3-azabicyclo[3.1.0]hexane-2-carboxylic acid], the IC50 amounted to 16000 nM on NaV1.5 (setting [1]), 1900 nM at hNav1.7 and 4400 nM at human NaV1.7.

In the case of `O=C(O)[C@@H]1C[C@@H](F)CN1C(=O)c1cc(C2CC2)c(OCCC2CCN(Cc3cc(Cl)cc(Cl)c3)CC2)cc1F` [Example 94, (2S, 4R)-1-(5-cyclopropyl-4-(2-(1-(3,5-dichlorobenzyl)piperidin-4-yl)ethoxy)-2-fluorobenzoyl)-4-fluoropyrrolidine-2-carboxylic acid], the IC50 was no less than 30000 nM on NaV1.5 (setting [2]), 100 nM on hNav1.7 and 600 nM against human NaV1.7.

For the compound `COC[C@@H](c1cc(Cl)cc(Cl)c1)N1CCC(COc2cc(F)c(C(=O)N3C[C@H](F)C[C@H]3C(=O)O)cc2C2CC2)CC1` [Example 131, (2S,4R)-1-(5-cyclopropyl-4-((1-((R)-1-(3,5-dichlorophenyl)-2-methoxyethyl)piperidin-4-yl)methoxy)-2-fluorobenzoyl)-4-fluoropyrrolidine-2-carboxylic acid], the figures for the IC50 at NaV1.5 (setting [1]), on hNav1.7 and at human NaV1.7 were 18000 nM, 28 nM and 250 nM, respectively.

Turning to `O=C(O)[C@@H]1C[C@@H](F)CN1C(=O)c1cc(C2CC2)c(OCC2CCN([C@H](c3cc(Cl)cc(Cl)c3)C(F)(F)F)CC2)cc1F` (single isomer, unassigned) [Example 140a], the IC50 at NaV1.5 (setting [1]) is 2700 nM; on hNav1.7 it was 14 nM; against human NaV1.7 it was 170 nM.

For the compound `Cc1nn(C2CCN(c3ccc(Cl)c(C(F)(F)F)n3)CC2)c2cc(F)c(C(=O)N3CCC[C@H]3C(=O)O)cc12` [Example 195, (S)-1-(1-(1-(5-chloro-6-(trifluoromethyl)pyridin-2-yl)piperidin-4-yl)-6-fluoro-3-methyl-1H-indazole-5-carbonyl)pyrrolidine-2-carboxylic acid trifluoroacetate], the IC50 on NaV1.5 (setting [2]) was no less than 30000 nM; at hNav1.7 it was 1900 nM; on human NaV1.7, 5900 nM.

For `CC1(COc2cc(F)c(C(=O)N3CCC[C@H]3C(=O)O)cc2C2CC2)CN(C(c2ccccc2)c2cc(Cl)cc(Cl)c2)C1` (stereo partly drawn) [Example 196, (2S)-1-(5-cyclopropyl-4-((1-((3,5-dichlorophenyl)(phenyl)methyl)-3-methylazetidin-3-yl)methoxy)-2-fluorobenzoyl)pyrrolidine-2-carboxylic acid trifluoroacetate], the IC50 at NaV1.5 (setting [1]) is 13000 nM; on hNav1.7, 18 nM; against human NaV1.7 it was 1400 nM.

Regarding `O=C(O)[C@@H]1C[C@@H](F)CN1C(=O)c1cc(C2CC2)c(OCC2CCN(Cc3c(Cl)cccc3Cl)CC2)cc1F` [Example 222, (2S,4R)-1-(5-cyclopropyl-4-((1-(2,6-dichlorobenzyl)piperidin-4-yl)methoxy)-2-fluorobenzoyl)-4-fluoropyrrolidine-2-carboxylic acid], the IC50 was no less than 30000 nM against NaV1.5 (setting [2]), 13 nM at hNav1.7 and 210 nM against human NaV1.7.

In the case of `O=C(O)[C@@H]1CC2(CC2)CN1C(=O)c1cc(C2CC2)c(OCC2(F)CCN(Cc3ccc(C(F)(F)F)cc3Cl)CC2)cc1F` [Example 124, (S)-5-(4-((1-(2-chloro-4-(trifluoromethyl)benzyl)-4-fluoropiperidin-4-yl)methoxy)-5-cyclopropyl-2-fluorobenzoyl)-5-azaspiro[2.4]heptane-6-carboxylic acid], the IC50 against NaV1.5 is 12000 nM; at hNav1.7 it was 400 nM; at human NaV1.7, 1500 nM.

As to `C[C@H]1CCN(C(=O)c2cc(C3CC3)c(OCC3CCN([C@H](c4cc(Cl)cc(Cl)c4)C(F)(F)F)CC3)cc2F)[C@@H]1C(=O)O` (single isomer, unassigned) [Example 121a], the values for the IC50 on NaV1.5 (setting [1]), at hNav1.7 and at human NaV1.7 were 13000 nM, 20 nM and 880 nM, respectively.

For `CC(c1ccc(Cl)cc1Cl)N1CCC(COc2cc(F)c(C(=O)N3C[C@H](F)C[C@H]3C(=O)O)cc2C2CC2)CC1` (stereo partly drawn) [Example 174], the IC50 was no less than 30000 nM against NaV1.5 (setting [2]), 26 nM at hNav1.7 and 340 nM against human NaV1.7.

Consider `C[C@H]1OCN(C(=O)c2cc(C3CC3)c(OCC3CCN(Cc4cc(C(F)(F)F)ccc4Cl)CC3)cc2F)[C@@H]1C(=O)O` [Example 228, (4S,5R)-3-(4-((1-(2-chloro-5-(trifluoromethyl)benzyl)piperidin-4-yl)methoxy)-5-cyclopropyl-2-fluorobenzoyl)-5-methyloxazolidine-4-carboxylic acid], for which the IC50 on NaV1.5 (setting [1]) came to 25000 nM; at hNav1.7 it was 17 nM; on human NaV1.7 it was 87 nM.

For `O=C(O)C1CCN(C(=O)c2cc(C3CC3)c(OCC34CC5CC(CC(C5)C3)C4)cc2F)C1` (stereo not drawn) [Example 65, 1-(4-(adamantan-1-ylmethoxy)-5-cyclopropyl-2-fluorobenzoyl)pyrrolidine-3-carboxylic acid], the results for the IC50 at NaV1.5 (setting [1]), at hNav1.7 and against human NaV1.7 were 23000 nM, no less than 10000 nM and 5300 nM, respectively.

As for `CO[C@H]1CN(C(=O)c2cc(C3CC3)c(OCC34CC5CC(CC(C5)C3)C4)cc2F)[C@H](C(=O)O)C1C` (stereo partly drawn) [Example 205, (2S,4R)-1-(4-(adamantan-1-ylmethoxy)-5-cyclopropyl-2-fluorobenzoyl)-4-methoxy-3-methylpyrrolidine-2-carboxylic acid], the IC50 at NaV1.5 (setting [1]) was 25000 nM; on hNav1.7, 170 nM; against human NaV1.7, 2200 nM.

Regarding `C[C@H]1OCN(C(=O)c2cc(C3CC3)c(OCC3(C)CN([C@H](c4ccccc4)c4cc(Cl)cc(Cl)c4)C3)cc2F)[C@@H]1C(=O)O` [Example 229, (4S,5R)-3-(5-cyclopropyl-4-((1-((R)-(3,5-dichlorophenyl)(phenyl)methyl)-3-methylazetidin-3-yl)methoxy)-2-fluorobenzoyl)-5-methyloxazolidine-4-carboxylic acid], the values for the IC50 at NaV1.5 (setting [2]), on hNav1.7 and against human NaV1.7 were no less than 30000 nM, 6.9 nM and 270 nM, respectively.

For the compound `C[C@@H](c1cc(Cl)cc(Cl)c1)N1CCC(C)(COc2cc(F)c(C(=O)N3C[C@H](F)C[C@H]3C(=O)O)cc2C2CC2)CC1` (single isomer, unassigned) [Example 132a], the IC50 on NaV1.5 (setting [1]) is 17000 nM; at hNav1.7, 24 nM; against human NaV1.7, 330 nM.

For `O=C(O)[C@@H]1[C@@H](F)CCN1C(=O)c1cc(C2CC2)c(OCC23CC4CC(CC(C4)C2)C3)cc1F` [Example 64, (2R,3S)-1-(4-((adamantan-1-yl)methoxy)-5-cyclopropyl-2-fluorobenzoyl)-3-fluoropyrrolidine-2-carboxylic acid], the IC50 on NaV1.5 (setting [1]) was 8500 nM; at hNav1.7, 60 nM; at human NaV1.7, 790 nM.

Regarding `CC[C@H]1CCN(C(=O)c2cc(C3CC3)c(OCC34CC5CC(CC(C5)C3)C4)cc2F)[C@@H]1C(=O)O` [Example 168a, (2S,3S)-1-[4-(1-adamantylmethoxy)-5-cyclopropyl-2-fluoro-benzoyl]-3-ethyl-pyrrolidine-2-carboxylic acid], the IC50 amounted to 6800 nM at NaV1.5 (setting [1]), 610 nM at hNav1.7 and 3300 nM at human NaV1.7.

These data come from US10125098B2, “Therapeutic compounds and methods of use thereof” (GENENTECH, INC., priority 2014, dated 2018).
